The values that follow come from publication PMC11233931, “Remodeling tumor‐associated macrophage for anti‐cancer effects by rational design of irreversible inhibition of mitogen‐activated protein kinase‐activated protein kinase 2” (MedComm, 2024).

Common to all, as to test: Eurofins kinase selectivity profile against 380 other human recombinant kinases (Table S2)
Holding throughout (type): biochemical

Test [1] has as its target T1, 380 human recombinant protein kinases (Homo sapiens, UniProt P53671).
T1 construct: purchased Eurofins (Celle Lévescault)
Conditions: LIMK2(h), read-out: Inhibition rate. The method in brief:
(§1)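 Outsourced panel: 380 human recombinant kinases; inhibitor tested at various concentrations; purpose: MK2 selectivity check.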

The target in test [2] is T2, 380 human recombinant protein kinases (Homo sapiens, UniProt P16234).
T2 construct: purchased Eurofins (Celle Lévescault)
T2 sequence (P16234 24-1089): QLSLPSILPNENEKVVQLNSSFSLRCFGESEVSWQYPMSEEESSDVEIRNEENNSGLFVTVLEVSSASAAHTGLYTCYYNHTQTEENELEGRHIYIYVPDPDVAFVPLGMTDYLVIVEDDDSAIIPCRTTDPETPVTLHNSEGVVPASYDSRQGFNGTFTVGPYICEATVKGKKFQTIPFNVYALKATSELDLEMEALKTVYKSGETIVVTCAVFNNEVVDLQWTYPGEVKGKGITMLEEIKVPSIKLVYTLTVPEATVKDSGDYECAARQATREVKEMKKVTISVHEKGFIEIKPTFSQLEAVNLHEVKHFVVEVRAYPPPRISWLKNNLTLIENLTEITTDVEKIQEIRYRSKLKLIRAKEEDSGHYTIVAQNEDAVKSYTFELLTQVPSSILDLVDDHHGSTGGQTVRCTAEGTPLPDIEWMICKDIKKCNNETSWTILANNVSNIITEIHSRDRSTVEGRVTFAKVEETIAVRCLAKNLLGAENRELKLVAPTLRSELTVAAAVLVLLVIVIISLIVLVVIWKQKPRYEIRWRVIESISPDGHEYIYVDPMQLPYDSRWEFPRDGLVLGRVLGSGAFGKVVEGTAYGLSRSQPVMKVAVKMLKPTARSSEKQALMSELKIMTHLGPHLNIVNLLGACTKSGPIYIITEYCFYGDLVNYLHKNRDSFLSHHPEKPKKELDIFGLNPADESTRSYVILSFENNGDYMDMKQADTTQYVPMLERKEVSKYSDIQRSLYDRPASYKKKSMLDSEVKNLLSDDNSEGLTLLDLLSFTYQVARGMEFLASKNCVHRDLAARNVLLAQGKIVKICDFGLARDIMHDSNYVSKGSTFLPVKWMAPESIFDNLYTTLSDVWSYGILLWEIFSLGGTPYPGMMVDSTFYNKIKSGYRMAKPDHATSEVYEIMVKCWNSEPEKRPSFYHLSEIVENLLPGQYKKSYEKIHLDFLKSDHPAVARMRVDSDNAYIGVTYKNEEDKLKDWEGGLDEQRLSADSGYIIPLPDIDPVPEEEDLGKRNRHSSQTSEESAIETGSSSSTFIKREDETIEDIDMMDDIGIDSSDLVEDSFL
The settings on record: PDGFRα(h), read-out: Inhibition rate. The procedure, abridged:
as §1

The target in test [3] is T3, 380 human recombinant protein kinases (Homo sapiens, UniProt Q13464).
T3 construct: purchased Eurofins (Celle Lévescault)
T3 sequence (Q13464 whole entry): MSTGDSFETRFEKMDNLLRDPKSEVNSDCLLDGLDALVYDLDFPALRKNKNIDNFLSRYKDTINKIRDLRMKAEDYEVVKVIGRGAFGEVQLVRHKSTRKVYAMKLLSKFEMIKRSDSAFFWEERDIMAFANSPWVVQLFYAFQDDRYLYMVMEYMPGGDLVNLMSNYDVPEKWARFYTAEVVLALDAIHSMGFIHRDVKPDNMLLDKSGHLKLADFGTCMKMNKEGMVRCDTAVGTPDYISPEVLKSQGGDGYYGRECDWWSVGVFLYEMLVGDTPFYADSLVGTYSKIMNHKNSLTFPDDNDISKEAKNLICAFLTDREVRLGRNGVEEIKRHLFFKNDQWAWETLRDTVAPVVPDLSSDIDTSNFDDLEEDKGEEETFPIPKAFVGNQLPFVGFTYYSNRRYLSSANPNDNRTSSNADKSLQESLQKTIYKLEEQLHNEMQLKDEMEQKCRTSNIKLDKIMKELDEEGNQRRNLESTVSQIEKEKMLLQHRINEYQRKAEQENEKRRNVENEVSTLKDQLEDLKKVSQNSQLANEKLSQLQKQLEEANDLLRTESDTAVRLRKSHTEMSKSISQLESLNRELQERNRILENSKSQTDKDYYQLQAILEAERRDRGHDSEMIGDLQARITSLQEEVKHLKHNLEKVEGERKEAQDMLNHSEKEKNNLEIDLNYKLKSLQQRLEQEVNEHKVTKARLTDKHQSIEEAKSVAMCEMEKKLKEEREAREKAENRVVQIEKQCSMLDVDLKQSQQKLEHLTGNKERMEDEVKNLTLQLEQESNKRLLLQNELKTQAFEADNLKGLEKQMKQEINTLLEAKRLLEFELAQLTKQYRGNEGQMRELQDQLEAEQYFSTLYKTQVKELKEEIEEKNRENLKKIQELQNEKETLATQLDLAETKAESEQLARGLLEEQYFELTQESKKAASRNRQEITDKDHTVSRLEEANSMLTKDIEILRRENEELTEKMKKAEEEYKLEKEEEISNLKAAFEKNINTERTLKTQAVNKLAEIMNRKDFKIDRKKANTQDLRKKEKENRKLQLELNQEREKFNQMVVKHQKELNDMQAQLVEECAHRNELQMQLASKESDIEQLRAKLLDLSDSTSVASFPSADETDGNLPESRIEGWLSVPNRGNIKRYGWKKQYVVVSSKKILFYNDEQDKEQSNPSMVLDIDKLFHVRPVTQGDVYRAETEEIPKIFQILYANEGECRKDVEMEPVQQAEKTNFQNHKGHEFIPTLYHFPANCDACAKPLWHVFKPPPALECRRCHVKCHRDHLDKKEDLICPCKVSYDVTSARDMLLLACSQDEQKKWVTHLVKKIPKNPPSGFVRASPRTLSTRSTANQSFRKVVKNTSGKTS
The settings on record: ROCK-I(h), read-out: Inhibition rate. The method in brief: as §1

In test [4] the target is T4, 380 human recombinant protein kinases (Homo sapiens, UniProt O15111).
T4 construct: purchased Eurofins (Celle Lévescault)
T4 sequence (O15111 1-745): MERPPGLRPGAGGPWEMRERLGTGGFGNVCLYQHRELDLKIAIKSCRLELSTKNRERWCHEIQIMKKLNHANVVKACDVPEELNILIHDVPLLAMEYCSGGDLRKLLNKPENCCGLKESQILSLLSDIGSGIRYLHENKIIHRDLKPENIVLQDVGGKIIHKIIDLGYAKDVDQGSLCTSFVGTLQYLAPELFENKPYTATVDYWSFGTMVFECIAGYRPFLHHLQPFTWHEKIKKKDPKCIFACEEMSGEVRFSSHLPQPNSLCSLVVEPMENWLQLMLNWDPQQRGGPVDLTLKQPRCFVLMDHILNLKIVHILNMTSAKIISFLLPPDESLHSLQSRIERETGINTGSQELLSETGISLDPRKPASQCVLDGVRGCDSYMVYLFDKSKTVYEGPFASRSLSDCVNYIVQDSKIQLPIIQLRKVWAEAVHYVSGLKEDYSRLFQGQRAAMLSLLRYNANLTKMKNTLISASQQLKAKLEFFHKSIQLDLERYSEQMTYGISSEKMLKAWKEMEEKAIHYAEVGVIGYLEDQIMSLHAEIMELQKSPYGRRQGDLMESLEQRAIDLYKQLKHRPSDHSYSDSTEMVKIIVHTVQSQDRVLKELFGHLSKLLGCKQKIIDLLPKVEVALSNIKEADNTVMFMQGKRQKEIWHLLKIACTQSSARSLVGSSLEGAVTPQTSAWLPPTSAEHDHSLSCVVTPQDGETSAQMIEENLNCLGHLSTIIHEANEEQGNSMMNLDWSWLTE
Conditions: IKKα(h), read-out: Inhibition rate. The method in brief:
as §1

In test [5] the target is T5, 380 human recombinant protein kinases (Homo sapiens, UniProt P36896).
T5 construct: purchased Eurofins (Celle Lévescault)
T5 sequence (P36896 24-505): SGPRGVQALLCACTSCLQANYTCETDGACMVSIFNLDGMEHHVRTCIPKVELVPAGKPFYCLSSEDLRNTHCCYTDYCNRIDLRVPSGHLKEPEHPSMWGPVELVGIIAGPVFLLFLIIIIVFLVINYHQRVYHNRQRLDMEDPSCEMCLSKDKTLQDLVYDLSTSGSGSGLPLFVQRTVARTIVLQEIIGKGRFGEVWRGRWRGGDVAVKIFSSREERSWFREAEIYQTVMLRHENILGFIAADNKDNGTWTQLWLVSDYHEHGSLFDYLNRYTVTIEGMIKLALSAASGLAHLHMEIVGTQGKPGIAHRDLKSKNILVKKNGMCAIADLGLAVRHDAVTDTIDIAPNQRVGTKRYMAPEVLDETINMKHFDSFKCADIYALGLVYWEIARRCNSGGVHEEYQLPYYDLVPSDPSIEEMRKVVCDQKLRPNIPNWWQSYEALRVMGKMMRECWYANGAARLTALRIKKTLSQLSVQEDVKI
Conditions: ALK4(h), read-out: Inhibition rate. The procedure, abridged: as §1

T1 sequence (P53671 whole entry): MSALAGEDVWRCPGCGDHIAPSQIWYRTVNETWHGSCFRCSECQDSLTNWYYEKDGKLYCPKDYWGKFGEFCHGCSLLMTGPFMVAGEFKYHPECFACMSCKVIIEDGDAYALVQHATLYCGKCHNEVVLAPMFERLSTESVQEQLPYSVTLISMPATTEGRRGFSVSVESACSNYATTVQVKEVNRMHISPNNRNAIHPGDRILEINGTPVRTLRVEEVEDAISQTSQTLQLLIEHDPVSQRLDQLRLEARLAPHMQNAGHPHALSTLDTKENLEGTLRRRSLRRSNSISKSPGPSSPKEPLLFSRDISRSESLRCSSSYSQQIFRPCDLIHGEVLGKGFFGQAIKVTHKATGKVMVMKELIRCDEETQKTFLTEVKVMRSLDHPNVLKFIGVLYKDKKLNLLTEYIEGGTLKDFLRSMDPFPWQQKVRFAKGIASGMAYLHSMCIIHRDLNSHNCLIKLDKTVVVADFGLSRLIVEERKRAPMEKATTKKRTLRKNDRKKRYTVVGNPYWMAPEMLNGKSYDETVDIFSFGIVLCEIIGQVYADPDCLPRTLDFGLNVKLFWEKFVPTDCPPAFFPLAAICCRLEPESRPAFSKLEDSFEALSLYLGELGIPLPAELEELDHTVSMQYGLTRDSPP

As usually defined, the inhibition is the change of the read-out against control, counted positive when it falls. Turning to `C=CC(=O)Nc1cc(-c2cc(-c3cc4c([nH]3)CCNC4=O)ccn2)ccc1OC(F)(F)F` [compound 11], the inhibition at 0.01 µM in test [1] (10 nM) was -9%; in test [2] (10 nM), -5%; in test [3] (10 nM), 2%; in test [4] (10 nM) it was -15%; in test [5] (10 nM) it was 26%. In addition, the inhibition at 0.1 µM in test [1] (100 nM) is -8%; in test [2] (100 nM), -3%; in test [3] (100 nM) it was -1%; in test [4] (100 nM), -14%; in test [5] (100 nM) it was 16%. The inhibition at 1 µM in test [1] (1000 nM) is -1%; in test [2] (1000 nM) it was -2%; in test [3] (1000 nM), -7%; in test [4] (1000 nM), -5%; in test [5] (1000 nM) it was 6%.
